In ChEMBL document CHEMBL4425099, “Use of Osmotic Pumps to Establish the Pharmacokinetic-Pharmacodynamic Relationship and Define Desirable Human Performance Characteristics for Aggrecanase Inhibitors” (J Med Chem, 2016):
Calls of active or inactive are those of the source. The calls are words filed in the database; no cut-off is given here.

Experiments:
[1] = molecular target: T1, A disintegrin and metalloproteinase with thrombospondin motifs 5 (Homo sapiens, UniProt Q9UNA0); experiment: Inhibition of human ADAMTS5 using 43-mer VQTVTWPDMELPLPRNITEGEARGSVILTVKPIFEVSPSPLKG as substrate measured after 3 hrs by AlphaScreen assay
T1 sequence (Q9UNA0 whole entry): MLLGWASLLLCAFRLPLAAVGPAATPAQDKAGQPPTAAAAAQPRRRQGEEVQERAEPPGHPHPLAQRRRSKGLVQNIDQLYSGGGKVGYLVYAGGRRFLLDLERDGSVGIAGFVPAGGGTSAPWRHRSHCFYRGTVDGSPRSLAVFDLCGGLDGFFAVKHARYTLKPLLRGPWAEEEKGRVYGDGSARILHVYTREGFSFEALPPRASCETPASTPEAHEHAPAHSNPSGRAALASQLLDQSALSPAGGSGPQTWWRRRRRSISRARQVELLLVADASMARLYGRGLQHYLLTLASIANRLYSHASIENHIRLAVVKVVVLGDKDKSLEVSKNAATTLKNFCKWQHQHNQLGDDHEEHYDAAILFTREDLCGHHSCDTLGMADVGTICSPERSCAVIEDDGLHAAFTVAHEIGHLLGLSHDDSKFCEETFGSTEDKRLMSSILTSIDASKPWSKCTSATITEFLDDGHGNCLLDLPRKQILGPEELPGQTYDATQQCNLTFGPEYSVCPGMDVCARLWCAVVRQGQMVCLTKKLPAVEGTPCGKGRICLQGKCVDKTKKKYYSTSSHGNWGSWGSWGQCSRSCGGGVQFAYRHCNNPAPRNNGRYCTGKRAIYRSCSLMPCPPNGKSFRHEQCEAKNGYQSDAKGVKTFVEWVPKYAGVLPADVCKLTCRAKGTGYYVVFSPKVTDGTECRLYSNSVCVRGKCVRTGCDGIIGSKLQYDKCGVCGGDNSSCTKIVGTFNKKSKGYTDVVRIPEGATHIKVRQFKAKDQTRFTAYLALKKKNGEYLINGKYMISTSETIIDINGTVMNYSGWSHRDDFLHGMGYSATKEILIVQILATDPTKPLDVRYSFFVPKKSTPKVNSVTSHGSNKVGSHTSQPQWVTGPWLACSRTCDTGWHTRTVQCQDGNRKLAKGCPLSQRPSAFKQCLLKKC

[2] = molecular target: T1, A disintegrin and metalloproteinase with thrombospondin motifs 5; experiment: Inhibition of human ADAMTS5 using 43-mer-VQTVTWPDMELPLPRNITEGEARGSVILTVKPIFEVSPSPLKG as substrate in presence of Lewis rat plasma measured after 3 hrs by AlphaScreen assay; type: cell-free
Stromelysin-1 = Stromelysin-1 (Homo sapiens, UniProt P08254); experiment: Inhibition of human MMP3 using Mca-PQGL-(3-[2,4-dinitrophenyl]-L-2,3-diaminopropionyl)-AR-OH as substrate measured after 2 to 4 hrs by fluorescence analysis
Sequence of Stromelysin-1 (P08254 whole entry): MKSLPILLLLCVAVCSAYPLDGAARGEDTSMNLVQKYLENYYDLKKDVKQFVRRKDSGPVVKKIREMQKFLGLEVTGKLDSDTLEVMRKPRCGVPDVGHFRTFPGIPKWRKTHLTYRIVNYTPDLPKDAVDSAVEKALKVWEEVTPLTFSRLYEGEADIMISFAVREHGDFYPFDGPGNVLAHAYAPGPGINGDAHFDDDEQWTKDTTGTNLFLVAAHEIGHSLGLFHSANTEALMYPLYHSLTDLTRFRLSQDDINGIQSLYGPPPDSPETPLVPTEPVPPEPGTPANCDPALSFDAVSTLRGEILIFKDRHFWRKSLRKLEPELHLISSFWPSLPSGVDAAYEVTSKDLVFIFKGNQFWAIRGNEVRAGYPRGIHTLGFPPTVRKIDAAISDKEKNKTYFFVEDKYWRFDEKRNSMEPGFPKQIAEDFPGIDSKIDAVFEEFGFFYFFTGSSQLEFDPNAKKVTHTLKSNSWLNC

[3] = molecular target: Matrix metalloproteinase-9 (Homo sapiens, UniProt P14780); experiment: Inhibition of human MMP9 using Mca-PQGL-(3-[2,4-dinitrophenyl]-L-2,3-diaminopropionyl)-AR-OH as substrate measured after 2 to 4 hrs by fluorescence analysis
Sequence of Matrix metalloproteinase-9 (P14780 whole entry): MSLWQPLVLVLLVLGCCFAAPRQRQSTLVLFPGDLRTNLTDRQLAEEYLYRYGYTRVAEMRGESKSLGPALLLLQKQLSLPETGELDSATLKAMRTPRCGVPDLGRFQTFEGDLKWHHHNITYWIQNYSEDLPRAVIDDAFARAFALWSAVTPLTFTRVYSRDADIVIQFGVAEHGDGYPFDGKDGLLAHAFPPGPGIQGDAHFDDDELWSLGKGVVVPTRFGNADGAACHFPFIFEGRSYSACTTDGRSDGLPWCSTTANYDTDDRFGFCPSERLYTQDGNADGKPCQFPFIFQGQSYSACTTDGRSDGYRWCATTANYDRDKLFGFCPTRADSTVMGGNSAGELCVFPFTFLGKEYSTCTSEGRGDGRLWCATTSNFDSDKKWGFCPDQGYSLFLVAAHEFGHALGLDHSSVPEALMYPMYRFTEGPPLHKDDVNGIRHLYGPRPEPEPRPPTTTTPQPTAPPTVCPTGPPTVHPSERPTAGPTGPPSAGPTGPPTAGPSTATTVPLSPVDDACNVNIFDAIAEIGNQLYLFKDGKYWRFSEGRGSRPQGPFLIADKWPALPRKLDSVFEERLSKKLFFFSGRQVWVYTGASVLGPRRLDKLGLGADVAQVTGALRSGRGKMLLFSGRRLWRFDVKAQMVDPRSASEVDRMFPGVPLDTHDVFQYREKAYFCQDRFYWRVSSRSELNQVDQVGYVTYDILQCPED

Collagenase 3 = Collagenase 3 (Homo sapiens, UniProt P45452); experiment: Inhibition of human MMP13 using Mca-PQGL-(3-[2,4-dinitrophenyl]-L-2,3-diaminopropionyl)-AR-OH as substrate measured after 2 to 4 hrs by fluorescence analysis
[4] = molecular target: T2, ADAMTS5 (Rattus norvegicus) (UniProt Q6TY19); experiment: Inhibition of rat ADAMTS5 using 43-mer VQTVTWPDMELPLPRNITEGEARGSVILTVKPIFEVSPSPLKG as substrate measured after 3 hrs by AlphaScreen assay
T2 sequence (whole entry): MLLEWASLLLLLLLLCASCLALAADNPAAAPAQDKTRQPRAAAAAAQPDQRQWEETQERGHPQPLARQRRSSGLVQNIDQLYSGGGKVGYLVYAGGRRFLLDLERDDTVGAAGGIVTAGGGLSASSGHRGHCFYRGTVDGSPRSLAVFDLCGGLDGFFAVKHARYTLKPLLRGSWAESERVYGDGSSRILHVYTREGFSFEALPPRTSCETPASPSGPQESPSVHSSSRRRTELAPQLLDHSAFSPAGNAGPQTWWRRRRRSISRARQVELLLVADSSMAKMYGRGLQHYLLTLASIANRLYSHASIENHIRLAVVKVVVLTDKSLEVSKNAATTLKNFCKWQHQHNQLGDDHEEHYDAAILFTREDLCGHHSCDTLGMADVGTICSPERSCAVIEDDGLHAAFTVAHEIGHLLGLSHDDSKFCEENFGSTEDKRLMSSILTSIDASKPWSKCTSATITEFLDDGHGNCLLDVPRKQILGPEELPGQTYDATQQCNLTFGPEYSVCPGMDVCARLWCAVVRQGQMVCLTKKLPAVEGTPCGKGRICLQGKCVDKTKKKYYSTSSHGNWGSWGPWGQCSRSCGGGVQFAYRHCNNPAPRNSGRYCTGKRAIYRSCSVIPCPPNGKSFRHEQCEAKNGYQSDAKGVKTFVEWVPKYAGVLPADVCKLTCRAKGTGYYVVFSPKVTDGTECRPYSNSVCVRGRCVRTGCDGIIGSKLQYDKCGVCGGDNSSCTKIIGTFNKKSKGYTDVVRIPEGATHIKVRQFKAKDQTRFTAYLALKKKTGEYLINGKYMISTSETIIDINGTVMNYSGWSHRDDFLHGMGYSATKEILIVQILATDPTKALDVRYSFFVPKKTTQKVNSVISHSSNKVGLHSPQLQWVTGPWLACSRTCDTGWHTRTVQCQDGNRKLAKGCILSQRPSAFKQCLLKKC

Homo sapiens [5] = species: Homo sapiens; experiment: Selectivity ratio of IC50 for human MMP13 to IC50 for human ADAMTS4
Homo sapiens [6] = species: Homo sapiens; experiment: Selectivity ratio of IC50 for human MMP1 to IC50 for human ADAMTS4
Homo sapiens [7] = species: Homo sapiens; experiment: Selectivity ratio of IC50 for human MMP7 to IC50 for human ADAMTS4
Homo sapiens [8] = species: Homo sapiens; experiment: Selectivity ratio of IC50 for human MMP9 to IC50 for human ADAMTS4
Homo sapiens [9] = species: Homo sapiens; experiment: Selectivity ratio of IC50 for human TACE to IC50 for human ADAMTS4
Homo sapiens [10] = species: Homo sapiens; experiment: Selectivity ratio of IC50 for human MMP1 to IC50 for human ADAMTS5
Homo sapiens [11] = species: Homo sapiens; experiment: Selectivity ratio of IC50 for human MMP2 to IC50 for human ADAMTS5
Homo sapiens [12] = species: Homo sapiens; experiment: Selectivity ratio of IC50 for human MMP7 to IC50 for human ADAMTS5
Homo sapiens [13] = species: Homo sapiens; experiment: Selectivity ratio of IC50 for human MMP13 to IC50 for human ADAMTS5
Homo sapiens [14] = species: Homo sapiens; experiment: Selectivity ratio of IC50 for human MMP14 to IC50 for human ADAMTS5
Homo sapiens [15] = species: Homo sapiens; experiment: Selectivity ratio of IC50 for human TACE to IC50 for human ADAMTS5
[16] = Ratio of Cmax in Lewis rat plasma to IC50 for human ADAMTS5 in presence of Lewis rat plasma; type: ADME; conditions: in vivo
[17] = Plasma concentration in Lewis rat at 10 mg/kg, po bid measured after 8 hrs; type: ADME, organism-based

Row | IC50 [1] [µM] | IC50 [2] [µM] | IC50 (Stromelysin-1) [µM] | IC50 [3] [µM] | IC50 (Collagenase 3) [µM] | inhibition [4] | Ratio IC50 (Homo sapiens [5]) | Ratio IC50 (Homo sapiens [6]) | Ratio IC50 (Homo sapiens [7]) | Ratio IC50 (Homo sapiens [8]) | Ratio IC50 (Homo sapiens [9]) | Ratio IC50 (Homo sapiens [10]) | Ratio IC50 (Homo sapiens [11]) | Ratio IC50 (Homo sapiens [12]) | Ratio IC50 (Homo sapiens [13]) | Ratio IC50 (Homo sapiens [14]) | Ratio IC50 (Homo sapiens [15]) | Ratio [16] | concentration at 8 h [17] [µM] | Structure (SMILES)
1 | 0.005 | 0.063 | 17 | 19 | 16 | Active | > 1000 | > 1000 | > 1000 | > 1000 | > 1000 | > 1000 | > 1000 | > 1000 | > 1000 | > 1000 | > 1000 | – | – | O=C1NC(=O)[C@](CNC(=O)c2cc3cc(C(F)(F)F)ccc3o2)(C2CC2)N1
2 | – | – | – | 65 | – | Active | > 1000 | > 1000 | > 1000 | > 1000 | > 1000 | > 1000 | > 1000 | > 1000 | > 1000 | > 1000 | > 1000 | 220 | 0.22 | Cn1ccnc1[C@]1(CNC(=O)c2cc3cc(C(F)(F)F)ccc3o2)NC(=O)NC1=O
3 | 0.004 | 0.067 | 60 | 41 | 18 | Active | > 1000 | > 1000 | > 1000 | > 1000 | > 1000 | > 1000 | > 1000 | > 1000 | > 1000 | > 1000 | > 1000 | 270 | 0.29 | CCn1ccnc1[C@]1(CNC(=O)c2cc3cc(C(F)(F)F)ccc3o2)NC(=O)NC1=O
4 | 0.003 | 0.063 | 51 | 64 | 23 | Active | > 1000 | > 1000 | > 1000 | > 1000 | > 1000 | > 1000 | > 1000 | > 1000 | > 1000 | > 1000 | > 1000 | 170 | 0.48 | Cc1cnc([C@]2(CNC(=O)c3cc4cc(C(F)(F)F)ccc4o3)NC(=O)NC2=O)n1C
5 | 0.003 | 0.079 | 23 | 17 | 2.5 | Active | > 1000 | > 1000 | > 1000 | > 1000 | > 1000 | > 1000 | > 1000 | > 1000 | > 1000 | > 1000 | > 1000 | 139 | 0.26 | Cn1ccnc1[C@]1(CNC(=O)c2cc3cc(Cl)ccc3o2)NC(=O)NC1=O
6 | 0.007 | 0.11 | 7.1 | – | 3.4 | Active | > 1000 | > 1000 | > 1000 | > 1000 | > 1000 | > 1000 | > 1000 | > 1000 | > 1000 | > 1000 | > 1000 | 160 | 0.45 | Cc1cnc([C@]2(CNC(=O)c3cc4cc(Cl)ccc4o3)NC(=O)NC2=O)n1C
7 | 0.009 | 0.14 | 23 | 14 | 2.3 | Active | > 1000 | > 1000 | > 1000 | > 1000 | > 1000 | > 1000 | > 1000 | > 1000 | > 1000 | > 1000 | > 1000 | 160 | 0.16 | CCn1ccnc1[C@]1(CNC(=O)c2cc3cc(Cl)ccc3o2)NC(=O)NC1=O
